Measurements taken from patent US4349545A, “Novel erythromycin a derivatives” (Roussel Uclaf, priority 1980, dated 1982).
Converted amounts (≈) assume the structure as drawn.

Experiments:
[1] = system: Streptococcus pyogenes A 561; assay: serial dilution liquid medium MIC, Streptococcus pyogenes A 561; type: cell-based; details: A561, 24 hours at 37° C., read-out: minimum inhibiting concentration (MIC)
Method: (§1) The method was a serial dilution of liquid medium test wherein a series of tubes were prepared containing the same amount of sterile nutritive medium and increasing amounts of the test product was distributed in each tube. The tubes were then seeded with a bacterial strain and incubated for 24 hours in an oven at 37° C. The degree of inhibition was determined by transillumination to determine the minimum inhibiting concentration (MIC) express in μg/ml and the results are reported in the following Tables.

[2] = system: Streptococcus faecalis 5435; assay: serial dilution liquid medium MIC, Streptococcus faecalis 5435; type: cell-based; details: Enterococcus faecalis, 24 hours at 37° C., read-out: minimum inhibiting concentration (MIC)
Method: as §1

[3] = system: Staphylococcus aureus exp. n° 54 146; assay: serial dilution liquid medium MIC, Staphylococcus aureus exp. n° 54 146; type: cell-based; details: Staphylococcus aureus exp. 54 146; 24 hours at 37° C.; read-out: minimum inhibiting concentration (MIC)
Method: as §1

[4] = system: Streptococcus faecalis 99 F 74; assay: serial dilution liquid medium MIC, Streptococcus faecalis 99 F 74; type: cell-based; details: Enterococcus faecalis, 99F74, 24 hours at 37° C., read-out: minimum inhibiting concentration (MIC)
Method: as §1

[5] = system: Streptococcus faecalis 5432; assay: serial dilution liquid medium MIC, Streptococcus faecalis 5432; type: cell-based; details: Enterococcus faecalis, 24 hours at 37° C., read-out: minimum inhibiting concentration (MIC)
Method: as §1

[6] = system: Staphylococcus aureus UC 1128; assay: serial dilution liquid medium MIC, Staphylococcus aureus UC 1128 pen-resistant; type: cell-based; details: UC1128; Staphylococcus aureus UC 1128 pen-resistant; 24 hours at 37° C.; read-out: minimum inhibiting concentration (MIC)
Method: as §1

[7] = system: Staphylococcus aureus 1061; assay: serial dilution liquid medium MIC, Staphylococcus aureus 1061 pen-sensibles; type: cell-based; details: 24 hours at 37° C., read-out: minimum inhibiting concentration (MIC)
Method: as §1

[8] = system: Staphylococcus aureus No. 54,146; assay: In vivo activity in mice experimentally infected with Staphylococcus aureus No. 54,146; details: groups of 10 mice
Method: The test was effected with the compounds of the invention and erythromycin as a reference on groups of 10 mice weighing about 21 g experimentally infected with Staphylococcus aureus No. 54,146 by intraperitoneal administration of 0.5 ml of a 22 hour culture of the said organism in bouillon with a pH of 7 diluted to 1/6 with physiological water. The test compounds were orally administrated to the mice 1,5 and 24 hours after the infection and the mortality on the 8th day was determined.

Structure (SMILES) | MIC [1] | MIC [2] | MIC [3] | MIC [4] | MIC [5] | MIC [6] | MIC [7] | No. of mice living on the 8th day ([8]; dose 0,5mg oral, 1,5 and 24 hours after infection) | No. of mice living on the 8th day ([8]; dose 0,25mg oral, 1,5 and 24 hours after infection) | No. of mice living on the 8th day ([8]; dose 0,75mg oral, 1,5 and 24 hours after infection)
CC[C@H]1OC(=O)[C@H](C)[C@@H](O[C@H]2C[C@@](C)(OC)[C@@H](O)[C@H](C)O2)[C@H](C)[C@@H](O[C@@H]2O[C@H](C)C[C@H](N(C)C)[C@H]2O)[C@](C)(O)C[C@@H](C)C(=NOCOCCNC)[C@H](C)[C@@H](O)[C@]1(C)O [Example 25, 9-[0-{(2-methylamino-ethoxy}-methyl)-oxime] of erythromycin] | ≤ 0.01 µg/mL | 0.2 µg/mL (≈ 0.239 µM) | 0.5 µg/mL (≈ 0.598 µM) | 0.05 µg/mL (≈ 0.0598 µM) | 0.05 µg/mL (≈ 0.0598 µM) | 0.5 µg/mL (≈ 0.598 µM) | 0.5 µg/mL (≈ 0.598 µM) | – | – | –
CC[C@H]1OC(=O)[C@H](C)[C@@H](O[C@H]2C[C@@](C)(OC)[C@@H](O)[C@H](C)O2)[C@H](C)[C@@H](O[C@@H]2O[C@H](C)C[C@H](N(C)C)[C@H]2O)[C@](C)(O)C[C@@H](C)C(=NOCCOCCO)[C@H](C)[C@@H](O)[C@]1(C)O [Example 17, 9-[0-(2-{2-hydroxyethoxy}-ethyl)-oxime] of erythromycin] | 0.05 µg/mL (≈ 0.0597 µM) | 0.6 µg/mL (≈ 0.717 µM) | 0.4 µg/mL (≈ 0.478 µM) | 0.1 µg/mL (≈ 0.119 µM) | 0.1 µg/mL (≈ 0.119 µM) | 0.6 µg/mL (≈ 0.717 µM) | 0.4 µg/mL (≈ 0.478 µM) | – | – | –
CC[C@H]1OC(=O)[C@H](C)[C@@H](O[C@H]2C[C@@](C)(OC)[C@@H](O)[C@H](C)O2)[C@H](C)[C@@H](O[C@@H]2O[C@H](C)C[C@H](N(C)C)[C@H]2O)[C@](C)(O)C[C@@H](C)C(=NOCCC#N)[C@H](C)[C@@H](O)[C@]1(C)O [Example 14, 9-[0-(2-cyanoethyl)-oxime] of erythromycin] | 0.02 µg/mL (≈ 0.0249 µM) | 0.4 µg/mL (≈ 0.499 µM) | 0.4 µg/mL (≈ 0.499 µM) | 0.05 µg/mL (≈ 0.0623 µM) | 0.1 µg/mL (≈ 0.125 µM) | 0.4 µg/mL (≈ 0.499 µM) | 0.2 µg/mL (≈ 0.249 µM) | – | – | –
CC[C@H]1OC(=O)[C@H](C)[C@@H](O[C@H]2C[C@@](C)(OC)[C@@H](O)[C@H](C)O2)[C@H](C)[C@@H](O[C@@H]2O[C@H](C)C[C@H](N(C)C)[C@H]2O)[C@](C)(O)C[C@@H](C)C(=NOCOCCCl)[C@H](C)[C@@H](O)[C@]1(C)O [Example 21, 9-[0-{(2-chloroethoxy)-methyl}-oxime] of erythromycin] | 0.02 µg/mL (≈ 0.0238 µM) | – | 0.2 µg/mL (≈ 0.238 µM) | 0.1 µg/mL (≈ 0.119 µM) | 0.1 µg/mL (≈ 0.119 µM) | 0.2 µg/mL (≈ 0.238 µM) | 0.2 µg/mL (≈ 0.238 µM) | 6 mice | 0 mice | 10 mice

Second part, led by results:

MIC [1] | MIC [2] | MIC [3] | MIC [4] | MIC [5] | MIC [6] | MIC [7] | Structure (SMILES) | No. of mice living on the 8th day ([8]; dose 0,5mg oral, 1,5 and 24 hours after infection) | No. of mice living on the 8th day ([8]; dose 0,25mg oral, 1,5 and 24 hours after infection) | No. of mice living on the 8th day ([8]; dose 0,75mg oral, 1,5 and 24 hours after infection)
0.1 µg/mL (≈ 0.112 µM) | 1 µg/mL (≈ 1.12 µM) | 0.6 µg/mL (≈ 0.673 µM) | 0.2 µg/mL (≈ 0.224 µM) | 0.2 µg/mL (≈ 0.224 µM) | 0.1 µg/mL (≈ 0.112 µM) | 0.6 µg/mL (≈ 0.673 µM) | CC[C@H]1OC(=O)[C@H](C)[C@@H](O[C@H]2C[C@@](C)(OC)[C@@H](O)[C@H](C)O2)[C@H](C)[C@@H](O[C@@H]2O[C@H](C)C[C@H](N(C)C)[C@H]2O)[C@](C)(O)C[C@@H](C)C(=NOCOCCN2CCOCC2)[C@H](C)[C@@H](O)[C@]1(C)O [Example 26, 9-[0-{(2-(morpholin-4-yl)-ethoxy}-methyl)-oxime] of erythromycin] | – | – | –
0.05 µg/mL (≈ 0.0588 µM) | 1 µg/mL (≈ 1.18 µM) | 0.6 µg/mL (≈ 0.706 µM) | 0.1 µg/mL (≈ 0.118 µM) | 0.4 µg/mL (≈ 0.471 µM) | 0.6 µg/mL (≈ 0.706 µM) | 0.4 µg/mL (≈ 0.471 µM) | CC[C@H]1OC(=O)[C@H](C)[C@@H](O[C@H]2C[C@@](C)(OC)[C@@H](O)[C@H](C)O2)[C@H](C)[C@@H](O[C@@H]2O[C@H](C)C[C@H](N(C)C)[C@H]2O)[C@](C)(O)C[C@@H](C)C(=NOCC(O)CN(C)C)[C@H](C)[C@@H](O)[C@]1(C)O (stereo partly shown) [Example 48, 9-[0-(3-dimethylamino-2-hydroxy-propyl)-oxime] of erythromycin] | – | – | –
≤ 0.01 µg/mL | 0.2 µg/mL (≈ 0.253 µM) | 1 µg/mL (≈ 1.26 µM) | 0.1 µg/mL (≈ 0.126 µM) | 0.4 µg/mL (≈ 0.505 µM) | 1 µg/mL (≈ 1.26 µM) | 0.6 µg/mL (≈ 0.758 µM) | CC[C@H]1OC(=O)[C@H](C)[C@@H](O[C@H]2C[C@@](C)(OC)[C@@H](O)[C@H](C)O2)[C@H](C)[C@@H](O[C@@H]2O[C@H](C)C[C@H](N(C)C)[C@H]2O)[C@](C)(O)C[C@@H](C)C(=NOCCN)[C@H](C)[C@@H](O)[C@]1(C)O [Example 45, 9-[O-(2-aminoethyl)-oxime] of erythromycin] | – | – | –
0.05 µg/mL (≈ 0.0621 µM) | 0.2 µg/mL (≈ 0.248 µM) | 0.4 µg/mL (≈ 0.497 µM) | 0.2 µg/mL (≈ 0.248 µM) | 0.2 µg/mL (≈ 0.248 µM) | 0.4 µg/mL (≈ 0.497 µM) | 0.2 µg/mL (≈ 0.248 µM) | CC[C@H]1OC(=O)[C@H](C)[C@@H](O[C@H]2C[C@@](C)(OC)[C@@H](O)[C@H](C)O2)[C@H](C)[C@@H](O[C@@H]2O[C@H](C)C[C@H](N(C)C)[C@H]2O)[C@](C)(O)C[C@@H](C)C(=NOCC2CO2)[C@H](C)[C@@H](O)[C@]1(C)O (stereo partly shown) [Example 47, 9-[0-(oxiramylmethyl)-oxime] of erythromycin] | – | – | –
